Experiment: xn = mol fraction of the nth substance listed
Details: Fluid (supercritical or subcritical phases), Buoyancy - hydrostatic balance with magnetic suspension - one sinker

C [methane] + O=C=O
Details	mass density [kg/m3]
303.29 K, 11998 kPa, x2 = 0.8988	626.792
303.29 K, 15006 kPa, x2 = 0.3997	237.974
305.01 K, 18003 kPa, x2 = 0.8988	732.397
305.04 K, 7997 kPa, x2 = 0.8988	244.829
305.06 K, 9978 kPa, x2 = 0.8988	474.418
305.08 K, 11001 kPa, x2 = 0.3997	159.477
305.09 K, 12002 kPa, x2 = 0.0998	107.694
305.1 K, 4001 kPa, x2 = 0.3997	47.504
305.1 K, 17995 kPa, x2 = 0.6015	408.107
305.11 K, 3997 kPa, x2 = 0.7985	72.035
305.11 K, 5997 kPa, x2 = 0.0998	49.434
305.11 K, 6003 kPa, x2 = 0.7985	122.855
305.12 K, 3998 kPa, x2 = 0.8988	79.325
305.12 K, 5006 kPa, x2 = 0.7985	95.778
305.13 K, 6992 kPa, x2 = 0.0998	58.605
305.13 K, 6994 kPa, x2 = 0.8988	182.804
305.13 K, 9002 kPa, x2 = 0.0998	77.799
305.13 K, 11012 kPa, x2 = 0.6015	223.4
305.13 K, 14994 kPa, x2 = 0.3997	233.75
305.14 K, 5001 kPa, x2 = 0.6015	76.729
305.14 K, 14994 kPa, x2 = 0.7985	546.063
305.15 K, 3979 kPa, x2 = 0.6015	58.587
305.15 K, 6000 kPa, x2 = 0.6015	96.024
305.15 K, 7998 kPa, x2 = 0.0998	68.122
305.15 K, 9004 kPa, x2 = 0.6015	165.984
305.15 K, 11001 kPa, x2 = 0.2017	116.026
305.15 K, 11998 kPa, x2 = 0.2017	128.322
305.15 K, 12006 kPa, x2 = 0.3997	178.104
305.16 K, 3003 kPa, x2 = 0.0998	23.496
305.16 K, 4003 kPa, x2 = 0.0998	31.879
305.16 K, 8002 kPa, x2 = 0.2017	80.173
305.16 K, 8998 kPa, x2 = 0.3997	123.489
305.16 K, 10996 kPa, x2 = 0.8988	555.932
305.16 K, 14996 kPa, x2 = 0.0998	137.438
305.16 K, 15000 kPa, x2 = 0.6015	340.932
305.16 K, 18000 kPa, x2 = 0.2017	199.543
305.17 K, 6999 kPa, x2 = 0.6015	117.142
305.17 K, 7000 kPa, x2 = 0.7985	154.794
305.17 K, 10003 kPa, x2 = 0.0998	87.669
305.17 K, 10999 kPa, x2 = 0.0998	97.609
305.17 K, 18001 kPa, x2 = 0.0998	165.624
305.18 K, 4001 kPa, x2 = 0.2017	37.03
305.18 K, 4996 kPa, x2 = 0.3997	60.999
305.18 K, 5001 kPa, x2 = 0.2017	47.235
305.18 K, 6000 kPa, x2 = 0.3997	75.426
305.18 K, 7002 kPa, x2 = 0.3997	90.651
305.18 K, 8000 kPa, x2 = 0.6015	140.462
305.18 K, 9997 kPa, x2 = 0.3997	141.056
305.18 K, 11999 kPa, x2 = 0.7985	429.815
305.18 K, 14999 kPa, x2 = 0.2017	165.099
305.18 K, 18002 kPa, x2 = 0.7985	608.035
305.19 K, 7000 kPa, x2 = 0.2017	68.786
305.19 K, 9001 kPa, x2 = 0.2017	91.841
305.19 K, 9001 kPa, x2 = 0.7985	243.07
305.19 K, 12005 kPa, x2 = 0.6015	253.791
305.2 K, 5004 kPa, x2 = 0.8988	106.835
305.2 K, 10000 kPa, x2 = 0.2017	103.792
305.2 K, 11001 kPa, x2 = 0.7985	369.844
305.2 K, 11998 kPa, x2 = 0.8988	604.408
305.21 K, 8996 kPa, x2 = 0.8988	345.688
305.21 K, 15000 kPa, x2 = 0.8988	683.999
305.22 K, 6000 kPa, x2 = 0.2017	57.81
305.22 K, 8006 kPa, x2 = 0.3997	106.718
305.22 K, 10006 kPa, x2 = 0.6015	193.541
305.23 K, 5002 kPa, x2 = 0.0998	40.525
305.23 K, 6002 kPa, x2 = 0.8988	139.912
305.23 K, 10000 kPa, x2 = 0.7985	303.258
305.24 K, 8000 kPa, x2 = 0.7985	193.79
305.24 K, 17994 kPa, x2 = 0.3997	283.653
308.05 K, 7997 kPa, x2 = 0.8988	229.008
308.06 K, 6995 kPa, x2 = 0.8988	175.453
308.08 K, 10996 kPa, x2 = 0.3997	155.394
308.09 K, 8982 kPa, x2 = 0.8988	306.981
308.11 K, 7002 kPa, x2 = 0.6015	114.28
308.11 K, 7996 kPa, x2 = 0.2017	78.731
308.11 K, 18002 kPa, x2 = 0.8988	711.774
308.12 K, 8003 kPa, x2 = 0.6015	136.504
308.12 K, 11997 kPa, x2 = 0.7985	401.005
308.12 K, 18001 kPa, x2 = 0.2017	195.388
308.12 K, 18004 kPa, x2 = 0.0998	162.496
308.13 K, 8003 kPa, x2 = 0.3997	104.538
308.13 K, 9004 kPa, x2 = 0.2017	90.207
308.13 K, 10002 kPa, x2 = 0.2017	101.87
308.13 K, 11000 kPa, x2 = 0.0998	95.867
308.13 K, 11001 kPa, x2 = 0.6015	214.588
308.13 K, 15001 kPa, x2 = 0.7985	523.511
308.13 K, 15007 kPa, x2 = 0.6015	328.628
308.14 K, 5002 kPa, x2 = 0.2017	46.531
308.14 K, 5997 kPa, x2 = 0.6015	93.812
308.14 K, 6001 kPa, x2 = 0.3997	74.193
308.14 K, 8998 kPa, x2 = 0.6015	160.546
308.14 K, 11000 kPa, x2 = 0.2017	113.723
308.14 K, 11000 kPa, x2 = 0.7985	342.357
308.14 K, 12002 kPa, x2 = 0.6015	243.454
308.14 K, 14996 kPa, x2 = 0.3997	227.135
308.15 K, 3000 kPa, x2 = 0.0998	23.193
308.15 K, 6999 kPa, x2 = 0.0998	57.796
308.15 K, 8996 kPa, x2 = 0.3997	120.739
308.15 K, 14997 kPa, x2 = 0.0998	134.77
308.16 K, 4002 kPa, x2 = 0.2017	36.486
308.16 K, 4004 kPa, x2 = 0.6015	57.94
308.16 K, 4006 kPa, x2 = 0.7985	70.911
308.16 K, 5006 kPa, x2 = 0.3997	60.225
308.16 K, 9001 kPa, x2 = 0.7985	229.843
308.16 K, 9993 kPa, x2 = 0.8988	417.764
308.16 K, 10002 kPa, x2 = 0.6015	186.699
308.16 K, 11997 kPa, x2 = 0.0998	105.588
308.16 K, 15001 kPa, x2 = 0.2017	161.57
308.16 K, 17997 kPa, x2 = 0.3997	276.178
308.17 K, 3998 kPa, x2 = 0.0998	31.42
308.17 K, 5006 kPa, x2 = 0.7985	93.74
308.17 K, 9004 kPa, x2 = 0.0998	76.501
308.17 K, 9994 kPa, x2 = 0.3997	137.721
308.17 K, 18002 kPa, x2 = 0.7985	590.479
308.18 K, 6001 kPa, x2 = 0.2017	56.895
308.18 K, 6999 kPa, x2 = 0.2017	67.631
308.18 K, 8000 kPa, x2 = 0.7985	185.875
308.18 K, 9999 kPa, x2 = 0.0998	86.118
308.19 K, 6002 kPa, x2 = 0.0998	48.761
308.19 K, 6002 kPa, x2 = 0.7985	119.651
308.19 K, 18000 kPa, x2 = 0.6015	395.269
308.2 K, 11998 kPa, x2 = 0.2017	125.636
308.21 K, 5001 kPa, x2 = 0.0998	39.985
308.21 K, 7002 kPa, x2 = 0.7985	149.932
308.22 K, 5002 kPa, x2 = 0.8988	104.568
308.22 K, 5006 kPa, x2 = 0.6015	75.217
308.22 K, 7001 kPa, x2 = 0.3997	88.937
308.22 K, 10003 kPa, x2 = 0.7985	282.745
308.23 K, 4004 kPa, x2 = 0.8988	78.335
308.23 K, 5998 kPa, x2 = 0.8988	135.871
308.23 K, 12000 kPa, x2 = 0.3997	173.174
308.24 K, 8000 kPa, x2 = 0.0998	67.015
308.24 K, 11004 kPa, x2 = 0.8988	513.225
308.26 K, 4003 kPa, x2 = 0.3997	46.849
308.26 K, 14998 kPa, x2 = 0.8988	660.797
308.34 K, 11928 kPa, x2 = 0.8988	563.033
